Values quoted from earlier work, collected in patent US20130053433A1, “FATTY ACID DERIVATIVES AND ANALOGS OF DRUGS” (The University of North Carolina at Chapel Hill, priority 2010, published 2013).

Biological target: albumin (Homo sapiens, UniProt P02768)
Sequence (P02768 25-609): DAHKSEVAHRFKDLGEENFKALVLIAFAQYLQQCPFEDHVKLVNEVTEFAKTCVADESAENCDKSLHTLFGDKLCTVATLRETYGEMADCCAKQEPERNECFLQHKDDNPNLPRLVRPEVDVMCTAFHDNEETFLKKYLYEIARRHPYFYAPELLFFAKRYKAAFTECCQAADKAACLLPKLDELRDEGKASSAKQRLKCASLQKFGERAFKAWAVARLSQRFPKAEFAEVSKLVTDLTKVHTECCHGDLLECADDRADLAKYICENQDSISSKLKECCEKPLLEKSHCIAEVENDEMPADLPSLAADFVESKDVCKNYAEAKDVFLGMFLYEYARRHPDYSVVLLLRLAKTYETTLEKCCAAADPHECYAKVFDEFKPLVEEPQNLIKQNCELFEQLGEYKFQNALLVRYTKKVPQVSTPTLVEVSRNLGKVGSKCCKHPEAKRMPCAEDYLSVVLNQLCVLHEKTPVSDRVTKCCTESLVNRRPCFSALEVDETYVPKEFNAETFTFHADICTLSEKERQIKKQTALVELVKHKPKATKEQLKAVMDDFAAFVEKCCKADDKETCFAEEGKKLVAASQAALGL

Kd (read-out: dissociation constant Kd for albumin, Paal, Muller et al. 2001) [µM] | Kd for albumin (depending on total fatty acid concentration, Curry, Brick et al. 1999) | SMILES
~10 | – | CC(=O)O[C@H]1C(=O)[C@@]2(C)[C@H]([C@H](OC(=O)c3ccccc3)[C@]3(O)C[C@H](OC(=O)[C@H](O)[C@@H](NC(=O)c4ccccc4)c4ccccc4)C(C)=C1C3(C)C)[C@]1(OC(C)=O)CO[C@@H]1C[C@@H]2O [PTX, paclitaxel]
– | in the range of μM to nM | CCCCCCCCCCCCCCCCCC(=O)O [stearic acid]
